Experiments:
dystrophin [1] = settings: patients, after 180 weeks of treatment with 30 or 50 mg/kg/week; cited from earlier work
[2] = test system: Taiwanese SMA mouse model (Smn^−/− SMN2^Tg/−); assay: Survival of severe SMA mice after subcutaneous injection at PD0; format: in vivo
Method: To examine whether DG9 peptide can increase the efficacy of PMO, DGS peptide was conjugated to an 18-mer PMO with a sequence identical to nusinersen. The DG9-conjugated PMO and unconjugated-PMO and 2′-O-methoxyethyl-RNA (MOE) were injected into SMA model mice.
Mice were subcutanteously injected with the AOs or saline (NT) administered at postnatal day 0 (PD0) at two different doses-40 mg/kg or 80 mg/kg. The survival was recorded until a humane endpoint was reached. For the 40 mg/kg doses, the median survival was 12 d (unconjugated-PMO), 15.5 d (MOE), and increased to 58 d for DG9-PMO treatment (FIG. 9a). The median survival incremented to 57 d (unconjugated-PMO), 121 d (DG9-PMO) and 64 d (MOE) for the higher dose of 80 mg/kg (FIG. 9a).
All animal experiments were conducted in University of Alberta and approved by the Animal Care and Use Committee, University of Alberta Research Ethics Office. SMA transgenic mice (JAX stock #005058 FVB.Cg-Tg(SMN2)2HungSmn1^tm1Hung/J (Smn^−/−; SMN2^Tg/Tg), also known as the Taiwanese mice) were purchased from Jackson Laboratory (Bar Harbor, ME, USA). Heterozygous mice for Smn1 (Smn1^+/−; SMN2^−/−) were crossed with mice homozygous for Smn1 Smn^−/−; SMN2^Tg/Tg to obtain the SMA mice (Smn^−/−; SMN2^Tg/−) or the heterozygous healthy control (Smn1^+/−; SMN2^Tg/−). The SMA mice display a severe overt phenotype similar to SMA type I patients. […]

[3] = test system: Taiwanese SMA mouse model (Smn^−/− SMN2^Tg/−); assay: Righting reflex test; format: in vivo; settings: 40 mg/kg at PD0; mice that survived beyond PD12
Method: This spontaneous ability of the mice to right themselves up was tested from P2 until the weaning stage P20. The neonates were placed on their backs and the time taken to reposition and place all four paws on the ground was noted. The recording time was a maximum of 60 s. Each neonate underwent three trials, with a resting period of at least 10 minutes between trials. The data is expressed as the mean time to complete the righting reflex test ±SEM.

[4] = test system: Taiwanese SMA mouse model (Smn^−/− SMN2^Tg/−); assay: Whole-body plethysmographic recordings at PD7; format: in vivo, mice; settings: 40 mg/kg at PD0
Method: Measurements were performed in whole body, cylindrical transparent plexiglass plethysmographs that had one inflow and two outflow ports for the continuous delivery of fresh room air and removal of expired carbon dioxide. The plethysmograph of volumes were 10 ml (inner diameter: 1.9 cm, length: 3.5 cm for P7 mice with body weight less than 2.5 g), 30 ml (inner diameter: 2.6 cm, length: 5.6 cm for P7 mice with body weight more than 2.5 g) and 80 ml (inner diameter: 3.8 cm, length: 7 cm for P30) for measures of respiratory parameters with a flow rate of 15, 45, 120 ml/min, respectively. The gas was mixed with gas mixer (GSM-3, CWE InC, USA), delivered from compressed pure oxygen and pure nitrogen cannisters, being monitored using 0-200 ml/min gas regulators (Porter Instrument Company, USA).
Hypoxic challenge (11% of oxygen for 5 min) was performed with continuous monitoring of plethysmographic recordings without physical handling of the animal by switching inflow gas from normoxia (21% of oxygen, balanced by nitrogen) to hypoxia (11% of oxygen, balanced by nitrogen). […] For P30, the plethysmograph was recorded at room temperature of around 22° C. Pressure changes were detected with a pressure transducer (model DP 103; Validyne, USA), signal conditioner (CD-15; Validyne), recorded with data acquisition software (Axoscope) via analog-digital board (Digidata 1322A). […]

[5] = test system: Taiwanese SMA mouse model (Smn^−/− SMN2^Tg/−); assay: H and E muscle pathology (myofiber size, centrally nucleated fibers) in SMA mice; format: in vivo; settings: 40 mg/kg at PD0
From the text: Atrophic musculature is a classical characteristic feature of SMA with diminished skeletal muscle fiber size. To determine the treatment effects on muscle pathology, we assessed the physiology and architecture of the myofibers of two affected muscle groups− the quadriceps and intercostal muscles, as well as the sparingly affected diaphragm at PD7 and PD30 [79,80]. We quantified the cross-sectional area (CSA), the minimal feret's diameter and centrally nucleated fibers for at least 500 myofibers per muscle for each treatment using hematoxylin & eosin (H & E) staining at PD7 and PD30 (FIG. 12a, b, FIGS. 19 and 20).
7 μm cryosections of the quadricep muscle, diaphragm and intercostal muscle were stained with Meyer's H&E reagents (Electron Microscopy Reagents). For the centrally nucleated fibers and myofiber size, 500-800 were randomly selected per muscle per treatment. The cross-sectional area and minimal Feter's diameter were quantified using Image J. All H and E analyses were performed in a blinded fashion.

[6] = test system: Taiwanese SMA mouse model (Smn^−/− SMN2^Tg/−); assay: Neuromuscular junction (NMJ) staining at PD30; format: in vivo, mice; settings: 40 mg/kg at PD0
Method: NMJ staining was carried out as previously described. Briefly, the quadricep and the intercostal muscle were fixed in 4% paraformaldehyde (PFA) for 2 hours. The muscles were washed quicky with PBS and blocked with 5% goat serum and 2% Triton-X in PBS for 1 hour at RT. This was followed by an overnight incubation at 4 with the primary mouse monoclonal antibodies anti-neurofilament 2H3 (1:100) and anti-synaptophysin (1:500) (DSHB, Iowa). Subsequently, the muscles were incubated in the dark with Alexafluor 488-goat anti-mouse IgG1 (1:1000) (Life Technologies) and Alexafluor 594-bungarotoxin (1:5000) (ThermoFisher Scientific). At least 300 NMJs were z-stacked and visualized for the analysis of denervation and cross-sectional area using a confocal microscope (Zeiss LSM 710) and Zeiss Zen software. The synaptic area was quantified using image J. All analyses were performed in a blinded fashion.

dystrophin [7] = settings: in vitro; cited from earlier work

eteplirsen
dystrophin of normal levels (dystrophin [1]): 0.93%

unconjugated-PMO: Example 2: 18-mer PMO targeting ISS-N1 intron 7 (5′-TCACTTTCATAATGCTGG-3′), sequence identical to nusinersen (all phosphorodiamidate morpholino (PMO); unconjugated)
median survival ([2]; 40 mg/kg subcutaneous at PD0): 12 days
median survival ([2]; 80 mg/kg subcutaneous at PD0): 57 days
time to right themselves on their paws [3]: still took longer than DG9-PMO mice
respiratory parameters (fR, VE, VT) ([4]; PD7, hypoxic environment (11% O2), relative to normoxia): slow, weak, and irregular breathing when compared to the Hets
respiratory phenotype ([4]; PD7, normoxic conditions (21% O2)): Half of the unconjugated-PMO mice (n=14) exhibited parameters as seen in NT mice
quadriceps myofiber size ([5]; PD7): significantly smaller than those of DG9-PMO
myofiber size and percent of central nuclei ([5]; PD30, all three tissue types): significantly smaller myofibers and a higher percent of central nuclei compared to DG9-PMO
NMJ architecture [6]: smaller endplates and collapsed vesicles
full innervation of NMJs ([6]; quadriceps and intercostal muscles): 40-50%

Ex51_Ac0: exon 51-skipping PMO, GTGTCACCAGAGTAACAGTCTGAGTAGGAG (all phosphorodiamidate morpholino (PMO); DG9 cell-penetrating peptide conjugated at 3' end in DG9-PMO)
effectiveness in restoring dystrophin production relative to eteplirsen (dystrophin [7]): up to 7 times
